Test system: Langendorff-perfused mouse hearts
Assay: Cardiac ischemia-reperfusion injury in Langendorff-perfused mouse hearts (ex vivo)
Procedure: FIG. 16 is a series of graphs showing the vasodilatory and tissue protective effects of MitoSNAP. (a) Dose-response curves for the effect of MitoSNAP and related compounds on blood vessel relaxation. The effects of intact or decomposed MitoSNAP and SNAP on pre-contracted rat thoracic aorta mounted in a myograph were determined Data represent means±sem. For MitoSNAP n=8 from experiments on two independent rat aorta preparations. For decomposed MitoSNAP and SNAP experiments the data (n=4) are from one aorta preparation. (b) EC50 for the effect of MitoSNAP and SNAP on blood vessel relaxation. The EC50 values were determined from experiments shown in (a) above. ***p<0.001 by Student's unpaired t-test. (c & d) MitoSNAP protects against I/R injury in Langendorff-perfused mouse hearts. Hearts from C57BL6 mice were Langendorff perfused and subjected to 25 min global normothermic ischemia followed by 1 h of reperfusion. MitoSNAP or MitoNAP (100 nM final), or vehicle carrier, was added via an infusion port above the aortic cannula during reperfusion. Hearts were then stained with 2,3,5-triphenyltetrazolium chloride (TTC) to visualize infarct. (c) Protection of heart function by MitoSNAP during I/R injury. Left ventricular contractile function was recorded throughout the I/R protocol.
FIG. 18 is a graph showing the effect of pre-ischemic administration of MitoSNAP or MitoNAP on recovery of heart function (rate pressure product) from IR injury. Experiments were carried out exactly as described in FIGS. 16c & 16d, except that MitoSNO1 or MitoNAP were infused into the heart for 20 min, followed by a 2 min wash-out period, prior to the onset of ischemia. White symbols=vehicle control, black symbols=MitoSN01, gray symbols=MitoNAP. Data are means±sem, n≧6. […]
There is considerable evidence pointing to mitochondrial damage during the reperfusion phase of cardiac ischemia-reperfusion (I/R) injury. […] Therefore we determined if MitoSNAP could decrease I/R injury in a mouse heart Langendorff model (FIGS. 16c & d). […]

SMILES: CC(=O)NC(C(=O)NCCCCC[P+](c1ccccc1)(c1ccccc1)c1ccccc1)C(C)(C)SN=O.CS(=O)(=O)[O-] (stereo not drawn) [MitoSNAP, [5-(2-acetylamino-3-methyl-3-nitrosothio-butyrylamino)-penty1]-triphenylphosphonium methanesulfonate]
- infarct size (100 nM during reperfusion): decrease in infarct size
- recovery of heart function (rate pressure product) (100 nM during reperfusion, 25 min ischemia, 1 h reperfusion): better recovery of heart function
- protection against I/R injury (delivered before the I/R injury): small degree of protection

Reference: US9045505B2, “Nitric oxide donors” (University of Otago, priority 2006, dated 2015)
